pIC50: −log10 of the molar value.

Here are results for 61 compounds from patent US9718790B2, “Triazine derivative and pharmaceutical composition having an analgesic activity comprising the same” (SHIONOGI & CO., LTD., priority 2010, dated 2017).

For the assay, the target named is human P2X3 receptor (Homo sapiens (Human), UniProt P56373). The assay can be described thus: Evaluation of human P2X3 receptor inhibitory activity (Fluo-3 calcium fluorescence, FDSS 3000, ATP stimulation).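 Note: stimulus was 50 nM ATP with fluorescence followed for 3 min, and the response per well was peak post-ATP fluorescence divided by the reading at measurement start.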 It counts as cell-based. Particulars: C6BU-1 cells stably expressing human P2X3 receptor, Fluo-3 fluorescence, FDSS 3000.
human P2X3 receptor, sequence (P56373 whole entry): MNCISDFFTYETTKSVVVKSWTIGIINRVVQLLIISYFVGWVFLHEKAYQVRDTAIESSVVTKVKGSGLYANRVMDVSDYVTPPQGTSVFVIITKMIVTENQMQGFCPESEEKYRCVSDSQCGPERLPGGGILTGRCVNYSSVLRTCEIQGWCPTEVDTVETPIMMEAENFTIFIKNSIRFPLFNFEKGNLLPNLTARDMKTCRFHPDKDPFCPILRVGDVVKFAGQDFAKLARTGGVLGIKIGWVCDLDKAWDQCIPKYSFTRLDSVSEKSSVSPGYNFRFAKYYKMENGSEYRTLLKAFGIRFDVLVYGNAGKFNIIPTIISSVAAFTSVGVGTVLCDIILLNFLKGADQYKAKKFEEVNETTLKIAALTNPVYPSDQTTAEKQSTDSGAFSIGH

In general, pIC50 refers to the negative decadic logarithm of the IC50, by convention in mol/L. With `CCc1oc2ccc(/N=c3\[nH]c(=O)n(CCO)c(=O)n3Cc3ccc(Cl)cc3)cc2c1C` [Compound I-1633], the pIC50 was 7.80.

For `Cc1nc2ccc(/N=c3\[nH]c(=O)n(CC4(C)COC(C)(C)OC4)c(=O)n3Cc3ccc(Cl)cc3)cc2s1` [Compound I-1635], the pIC50 is 8.30. The figure for `CCc1oc2ccc(/N=c3\[nH]c(=O)n(CC4(C)COC(C)(C)OC4)c(=O)n3Cc3ccc(Cl)cc3)cc2c1C` [Compound I-1636] is 8.05; for `CC(C)Cc1ccc(/N=c2\[nH]c(=O)n(CC(C)(CO)CO)c(=O)n2Cc2ccc(Cl)cc2)cc1Cl` [Compound I-1637] it is 7.92. On to `COC(=O)CN1CCC(Cn2c(=O)[nH]/c(=N\c3ccc(OC(C)C)c(C)c3)n(Cc3ccc(Cl)cc3)c2=O)CC1` [Compound I-1638], for which the pIC50 is 7.89. The figure for `COC(=O)CN1CCC(n2c(=O)[nH]/c(=N\c3ccc(OC(C)C)c(C)c3)n(Cc3ccc(Cl)cc3)c2=O)CC1` [Compound I-1639] is 7.85; for `Cc1cc(/N=c2\[nH]c(=O)n(CC3CN(C(=O)OC(C)(C)C)C3)c(=O)n2Cc2ccc(Cl)cc2)ccc1OC(C)C` [Compound I-1640] it is 7.89; for `Cc1cc(/N=c2\[nH]c(=O)n(C3CN(C(=O)OC(C)(C)C)C3)c(=O)n2Cc2ccc(Cl)cc2)ccc1OC(C)C` [Compound I-1641] it is 7.70. The figure for `CC1(C)OCC(Cn2c(=O)nc(Cc3cccc(C(F)(F)F)c3)n(Cc3ccc(Cl)cc3)c2=O)CO1` [Compound I-1642] is 6.26; for `Cc1nc2ccc(/N=c3\[nH]c(=O)n(CC(C)(CO)CO)c(=O)n3Cc3ccc(Cl)cc3)cc2s1` [Compound I-1643] it is 8.30. The figure for `CCc1oc2ccc(/N=c3\[nH]c(=O)n(CC(C)(CO)CO)c(=O)n3Cc3ccc(Cl)cc3)cc2c1C` [Compound I-1644] is 8.30. Regarding `CCOC(=O)CCn1c(=O)[nH]/c(=N\c2cccc(S(F)(F)(F)(F)F)c2)n(Cc2ccc(Cl)cc2)c1=O` [Compound I-1646], the pIC50 is 7.37. The figure for `Cc1cc(/N=c2\[nH]c(=O)n(CC3CCN(CC(=O)O)CC3)c(=O)n2Cc2ccc(Cl)cc2)ccc1OC(C)C` [Compound I-1648] is 6.80; for `Cc1cc(/N=c2\[nH]c(=O)n(C3CCN(CC(=O)O)CC3)c(=O)n2Cc2ccc(Cl)cc2)ccc1OC(C)C` [Compound I-1649] it is 6.55. In the case of `COC(=O)[C@@H](C)Cn1c(=O)[nH]/c(=N\c2ccc3oc(C)c(C)c3c2)n(Cc2ccc(Cl)cc2)c1=O` [Compound I-1650], the pIC50 was 8.05. The figure for `O=C(O)CCn1c(=O)[nH]/c(=N\c2cccc(S(F)(F)(F)(F)F)c2)n(Cc2ccc(Cl)cc2)c1=O` [Compound I-1651] is 7.27. The figure for `Cc1oc2ccc(/N=c3\[nH]c(=O)n(C[C@H](C)C(=O)O)c(=O)n3Cc3ccc(Cl)cc3)cc2c1C` [Compound I-1653] is 7.85; for `Cc1cc(/N=c2\[nH]c(=O)n(CC3CNC3)c(=O)n2Cc2ccc(Cl)cc2)ccc1OC(C)C` [Compound I-1654] it is 7.18; for `CCc1oc2ccc(/N=c3\[nH]c(=O)n(CC(N)=O)c(=O)n3Cc3ccc(Cl)cc3)cc2c1C` [Compound I-1656] it is 8.15. The figure for `CCc1oc2ccc(/N=c3\[nH]c(=O)n(CC(=O)NC)c(=O)n3Cc3ccc(Cl)cc3)cc2c1C` [Compound I-1657] is 8.05.

On to `CCc1oc2ccc(/N=c3\[nH]c(=O)n(CC(=O)NCCO)c(=O)n3Cc3ccc(Cl)cc3)cc2c1C` [Compound I-1658], for which the pIC50 is 8.22.

For `Cc1nc2ccc(/N=c3\[nH]c(=O)n(CC(N)=O)c(=O)n3Cc3ccc(Cl)cc3)cc2s1` [Compound I-1659], the negative-log IC50 (pIC50) was 8.22. The figure for `CNC(=O)Cn1c(=O)[nH]/c(=N\c2ccc3nc(C)sc3c2)n(Cc2ccc(Cl)cc2)c1=O` [Compound I-1660] is 8.30; for `Cc1nc2ccc(/N=c3\[nH]c(=O)n(CC(=O)NCCO)c(=O)n3Cc3ccc(Cl)cc3)cc2s1` [Compound I-1661] it is 8.22.

In the case of `Cc1cc(Oc2ccc(/N=c3\[nH]c(=O)n(C[C@H](C)C(=O)O)c(=O)n3Cc3ccc(Cl)cc3)cc2)no1` [Compound I-1662], the pIC50 is 7.96. The figure for `CCc1nc2ccc(/N=c3\[nH]c(=O)n(CCO)c(=O)n3Cc3ccc(Cl)cc3)cc2s1` [Compound I-1663] is 8.10; for `CCc1nc2ccc(/N=c3\[nH]c(=O)n(C[C@H](C)NC(C)=O)c(=O)n3Cc3ccc(Cl)cc3)cc2s1` [Compound I-1665] it is 8.15.

As to `CCc1oc2ccc(/N=c3\[nH]c(=O)n(C[C@H](C)NC(C)=O)c(=O)n3Cc3ccc(Cl)cc3)cc2c1C` [Compound I-1666], the pIC50 was 8.00. The figure for `COC(=O)CCn1c(=O)[nH]/c(=N\C2CCCCC2)n(Cc2ccc(C)cc2)c1=O` [Compound I-1668] is 6.51; for `Cc1nc2ccc(/N=c3\[nH]c(=O)n(CCC(N)=O)c(=O)n3Cc3ccc(Cl)cc3)cc2s1` [Compound I-1670] it is 8.15. The figure for `Cc1ccc(Cn2c(=O)n(CCC(N)=O)c(=O)[nH]/c2=N\c2ccc3nc(C)sc3c2)cc1` [Compound I-1671] is 8.22. The figure for `CCc1oc2ccc(/N=c3\[nH]c(=O)n(C[C@@H](C)NC(C)=O)c(=O)n3Cc3ccc(Cl)cc3)cc2c1C` [Compound I-1673] is 7.85; for `Cc1ccc(Cn2c(=O)n(CCC(=O)O)c(=O)[nH]/c2=N\c2nc3ccccc3s2)cc1` [Compound I-1674] it is 6.01; for `CCc1oc2ccc(/N=c3\[nH]c(=O)n(CCCC(=O)OC)c(=O)n3Cc3ccc(Cl)cc3)cc2c1C` [Compound I-1700] it is 7.92. Regarding `CCn1c(=O)[nH]/c(=N\c2ccc3nc(C)sc3c2)n(Cc2ccc(Cl)cc2)c1=O` [Compound I-1702], the negative-log IC50 (pIC50) is 8.40. As to `CCc1nc2ccc(/N=c3\[nH]c(=O)n(CC)c(=O)n3Cc3ccc(Cl)cc3)cc2s1` [Compound I-1703], the pIC50 is 8.40. The figure for `CCc1oc2ccc(/N=c3\[nH]c(=O)n(CCCC(=O)O)c(=O)n3Cc3ccc(Cl)cc3)cc2c1C` [Compound I-1704] is 7.82. With `CCc1nc2ccc(/N=c3\[nH]c(=O)n(CCCC(=O)O)c(=O)n3Cc3ccc(Cl)cc3)cc2s1` [Compound I-1705], the negative logarithm of the IC50 (pIC50) is 7.85.

As to `CCc1oc2ccc(/N=c3\[nH]c(=O)n(C[C@H](CC)NC(C)=O)c(=O)n3Cc3ccc(Cl)cc3)cc2c1C` [Compound I-1708], the negative-log IC50 (pIC50) was 7.77. The figure for `Cc1cc(/N=c2\[nH]c(=O)n(C3CNC3)c(=O)n2Cc2ccc(Cl)cc2)ccc1OC(C)C` [Compound I-1709] is 6.78; for `CCc1oc2ccc(/N=c3\[nH]c(=O)n(CCCC(N)=O)c(=O)n3Cc3ccc(Cl)cc3)cc2c1C` [Compound I-1710] it is 8.22; for `CCc1nc2ccc(/N=c3\[nH]c(=O)n(CCCC(N)=O)c(=O)n3Cc3ccc(Cl)cc3)cc2s1` [Compound I-1711] it is 8.30. In the case of `O=c1[nH]/c(=N\c2ccc(Oc3ccnc(O)c3)cc2)n(Cc2ccc(Cl)cc2)c(=O)n1CCO` [Compound I-1712], the pIC50 is 8.40. The figure for `O=c1[nH]/c(=N\c2ccc(Oc3ccnc(O)c3)cc2)n(Cc2ccc(Cl)cc2)c(=O)n1CCCO` [Compound I-1713] is 8.52; for `O=c1[nH]/c(=N\c2ccc(Oc3ccnc(O)c3)cc2)n(Cc2ccc(Cl)cc2)c(=O)n1CC(CO)CO` [Compound I-1714] it is 8.52; for `CCn1c(=O)[nH]/c(=N\c2ccc(Oc3ccnc(C(=O)NC)c3)cc2)n(Cc2ccc(Cl)cc2)c1=O` [Compound I-1717] it is 8.70.

In the case of `Cc1ccc(Cn2c(=O)n(CCC(=O)O)c(=O)[nH]/c2=N\c2ncc(-c3ccccc3)s2)cc1` [Compound I-1725], the pIC50 is 6.02. The figure for `CC(C)Oc1ccc(/N=c2\[nH]c(=O)n(CCC(=O)O)c(=O)n2CCC2C[C@H]3CC[C@@H]2C3)cc1F` (stereo partly shown) [Compound I-1729] is 6.17. On to `O=c1[nH]/c(=N\c2ccc(Oc3ccnc(O)c3)cc2)n(Cc2ccc(Cl)cc2)c(=O)n1C[C@H](O)CO` [Compound I-1731], for which the negative-log IC50 (pIC50) was 8.30.

For the compound `COc1ccc(Oc2ccc(/N=c3\[nH]c(=O)n(CCO)c(=O)n3Cc3ccc(Cl)cc3)cc2)cn1` [Compound I-1732], the negative logarithm of the IC50 (pIC50) was 7.96. The figure for `COc1ccc(Oc2ccc(/N=c3\[nH]c(=O)n(CCCO)c(=O)n3Cc3ccc(Cl)cc3)cc2)cn1` [Compound I-1733] is 8.52; for `COc1ccc(Oc2ccc(/N=c3\[nH]c(=O)n(C[C@H](O)CO)c(=O)n3Cc3ccc(Cl)cc3)cc2)cn1` [Compound I-1734] it is 8.30. Take `CNC(=O)c1cc(Oc2ccc(/N=c3\[nH]c(=O)n(CCO)c(=O)n3Cc3ccc(Cl)cc3)cc2)ccn1` [Compound I-1735]: the negative logarithm of the IC50 (pIC50) was 8.52. The figure for `Cn1c(=O)[nH]/c(=N\c2ccc(Oc3ccnc(O)c3)cc2)n(Cc2ccc(Cl)cc2)c1=O` [Compound I-1736] is 8.05. The figure for `Cc1nc2ccc(/N=c3\[nH]c(=O)n(C)c(=O)n3Cc3ccc(Cl)cc3)cc2s1` [Compound I-1737] is 7.72; for `CCc1nc2ccc(/N=c3\[nH]c(=O)n(CCC(=O)NC)c(=O)n3Cc3ccc(Cl)cc3)cc2s1` [Compound I-1738] it is 8.30; for `CCc1nc2ccc(/N=c3\[nH]c(=O)n(CCC(=O)NCCO)c(=O)n3Cc3ccc(Cl)cc3)cc2s1` [Compound I-1739] it is 8.15. Regarding `CCOC(=O)CN1CC(n2c(=O)[nH]/c(=N\c3ccc(OC(C)C)c(C)c3)n(Cc3ccc(Cl)cc3)c2=O)C1` [Compound I-1741], the pIC50 was 7.26. The figure for `Cc1cc(/N=c2\[nH]c(=O)n(C3CN(CC(=O)O)C3)c(=O)n2Cc2ccc(Cl)cc2)ccc1OC(C)C` [Compound I-1742] is 6.87; for `C[C@@H](C(=O)O)[C@H](C)n1c(=O)[nH]/c(=N\c2ccc3[nH]ncc3c2)n(Cc2ccc(Cl)cc2)c1=O` [Compound I-1743] it is 6.06. The figure for `CC(C)n1ncc2cc(/N=c3\[nH]c(=O)n([C@@H](C)[C@@H](C)C(=O)O)c(=O)n3Cc3ccc(Cl)cc3)ccc21` [Compound I-1744] is 6.62.
